The test system of assay [1] is MCF7 human breast cancer cell line. Kind of assay: MTT cytotoxicity, MCF7. The assay is classed as cell-based. The following applies: MCF7, 48 h, read-out: Anticancer activity IC50, MCF7.
Assay [2] concerns C26 colon carcinoma cell line. The experiment in a line: MTT cytotoxicity, C26. The assay is classed as cell-based. Particulars: 48 h, read-out: Anticancer activity IC50, C26.
For assay [3], the system named is HepG2 human hepatocyte carcinoma cell line. Kind of assay: MTT cytotoxicity, HepG2. The format is cell-based. The following applies: HepG2, 48 h, read-out: Anticancer activity IC50, HepG2.
In assay [4] the test system is Aspergillus niger ATCC 16404. Kind of assay: microbe, parasite or virus in culture. The assay is classed as cell-based. Particulars: ATCC16404, read-out: MIC, AN.
Assay [5] deals with methicillin-susceptible strains of Staphylococcus aureus ATCC 29213. Kind of assay: Microtitre broth dilution MIC, MSSA. The assay is classed as cell-based. Particulars: ATCC29213|MSSA, read-out: MIC, MSSA. On the technique in general: Dilution methods test growth across graded concentrations, often in twofold steps.
The test system of assay [6] is Escherichia coli ATCC 25922. Kind of assay: Microtitre broth dilution MIC, Escherichia coli. The format is cell-based. Particulars: ATCC25922, read-out: MIC, EC.
Assay [7] relates to Candida albicans ATCC 10321. The experiment in a line: microbe, parasite or virus in culture. The format is cell-based. The following applies: ATCC10321, read-out: MIC, CA.
Assay [8] deals with methicillin-resistant strains of Staphylococcus aureus ATCC 43300. Kind of assay: Microtitre broth dilution MIC, MRSA. The format is cell-based. The following applies: ATCC43300|MRSA, read-out: MIC, MRSA.
Assay [9] deals with Salmonella enterica ATCC 10428. Kind of assay: Microtitre broth dilution MIC, Salmonella enterica. The assay is classed as cell-based. Particulars: ATCC10428, read-out: MIC, SE.
In assay [10] the test system is Pseudomonas aeruginosa ATCC 27853. The experiment in a line: Microtitre broth dilution MIC, Pseudomonas aeruginosa. The assay is classed as cell-based. The following applies: ATCC27853, read-out: MIC, PA.
The test system of assay [11] is Streptococcus faecalis ATCC 29212. Kind of assay: Microtitre broth dilution MIC, Streptococcus faecalis. The format is cell-based. Particulars: Enterococcus faecalis, ATCC29212, read-out: MIC, SF.
In assay [12] the test system is H69PR human small cell lung cancer cell line. The experiment in a line: MTT cytotoxicity, H69PR. The format is cell-based. The following applies: 48 h, read-out: Anticancer activity IC50, H69PR.
For assay [13], the target named is T1, DHFR (Homo sapiens, UniProt P00374).
T1 sequence (P00374 1-187): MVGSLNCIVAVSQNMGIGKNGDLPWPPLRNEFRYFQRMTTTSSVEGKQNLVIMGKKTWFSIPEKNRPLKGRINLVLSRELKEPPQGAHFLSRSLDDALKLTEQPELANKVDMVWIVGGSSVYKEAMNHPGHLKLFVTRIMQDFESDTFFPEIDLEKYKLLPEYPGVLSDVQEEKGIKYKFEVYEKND
Kind of assay: In vitro dihydrofolate reductase inhibition assay. The format is biochemical. Particulars: IC50 DHFR inhibitory activity, IC50 ± SEM.

Assay [14] relates to bacterial strains (EC, PA, SF, SE, MSSA, MRSA) and fungi (CA, AN). The experiment in a line: Microtitre broth dilution MIC, stated over several strains. The assay is classed as cell-based. The following applies: strains SF, SE, MSSA, and MRSA.
Assay [15] has as its target VEGFR-2 (Homo sapiens, UniProt P35968). Kind of assay: In vitro VEGFR-2 kinase inhibition assay. The format is biochemical.
Assay [16] has as its system Candida albicans, Candida glabrata, Candida krusei, and Candida tropicalis. Particulars: cited from earlier work.
In assay [17] the test system is drug-resistant fungi. Particulars: ref [17]; cited from earlier work.

Each structure is given as a SMILES string. Converted amounts (≈) assume the structure as drawn. Read-outs that look alike come from different tables or passages of the source.

VEGFR-2, sequence (P35968 20-1356): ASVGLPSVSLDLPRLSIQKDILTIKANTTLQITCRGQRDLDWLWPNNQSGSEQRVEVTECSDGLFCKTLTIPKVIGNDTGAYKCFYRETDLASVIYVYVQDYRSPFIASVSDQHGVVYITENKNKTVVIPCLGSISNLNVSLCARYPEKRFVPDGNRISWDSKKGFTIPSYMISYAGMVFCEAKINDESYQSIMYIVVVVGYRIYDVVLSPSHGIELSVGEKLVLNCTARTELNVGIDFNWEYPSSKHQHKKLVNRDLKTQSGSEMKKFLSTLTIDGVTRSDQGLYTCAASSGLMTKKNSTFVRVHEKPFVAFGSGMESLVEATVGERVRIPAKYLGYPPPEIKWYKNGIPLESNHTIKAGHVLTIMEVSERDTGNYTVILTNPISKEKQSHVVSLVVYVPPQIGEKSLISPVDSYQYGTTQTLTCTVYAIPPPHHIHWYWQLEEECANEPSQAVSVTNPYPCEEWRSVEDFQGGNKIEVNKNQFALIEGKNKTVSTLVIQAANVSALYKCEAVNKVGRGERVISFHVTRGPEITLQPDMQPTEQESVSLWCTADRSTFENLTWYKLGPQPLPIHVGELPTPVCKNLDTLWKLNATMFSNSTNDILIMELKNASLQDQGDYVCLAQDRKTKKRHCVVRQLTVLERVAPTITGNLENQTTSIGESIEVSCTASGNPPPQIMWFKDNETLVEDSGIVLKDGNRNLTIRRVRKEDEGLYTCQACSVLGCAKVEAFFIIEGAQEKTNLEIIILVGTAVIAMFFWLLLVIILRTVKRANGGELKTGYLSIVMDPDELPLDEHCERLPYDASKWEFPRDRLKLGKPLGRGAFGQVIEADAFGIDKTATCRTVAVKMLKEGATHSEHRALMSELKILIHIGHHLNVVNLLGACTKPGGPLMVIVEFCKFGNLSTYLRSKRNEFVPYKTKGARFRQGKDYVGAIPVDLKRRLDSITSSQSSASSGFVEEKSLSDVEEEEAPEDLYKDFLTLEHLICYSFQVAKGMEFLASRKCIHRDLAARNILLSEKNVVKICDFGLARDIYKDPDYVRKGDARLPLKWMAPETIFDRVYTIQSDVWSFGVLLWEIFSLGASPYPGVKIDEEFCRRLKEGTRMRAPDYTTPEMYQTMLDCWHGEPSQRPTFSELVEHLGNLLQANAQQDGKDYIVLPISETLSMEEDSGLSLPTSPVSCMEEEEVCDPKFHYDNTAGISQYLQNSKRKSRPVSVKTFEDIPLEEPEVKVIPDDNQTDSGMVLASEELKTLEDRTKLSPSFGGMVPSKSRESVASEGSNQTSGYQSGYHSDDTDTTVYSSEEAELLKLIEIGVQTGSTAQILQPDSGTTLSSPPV

As usually defined, the IC50 is the concentration needed to halve the response being measured. Turning to `COc1cc(OC)c2c(O)cc(C(=O)NCc3ccc(Br)cc3)cc2c1` [7b, N-(4-bromobenzyl)-4-hydroxy-5,7-dimethoxy-2-naphthamide], the IC50 in assay [1] came out at 11.5 ± 1.61 µM; in assay [2], 9.83 ± 1.54 µM; in assay [3], 12.1 ± 1.09 µM; in assay [12] it was 21.3 ± 3.04 µM. Also, the MIC in assay [4] came to 256 µg/mL (≈ 615 µM); in [5], 32 µg/mL (≈ 76.9 µM); in assay [6] it was 64 µg/mL (≈ 154 µM); in assay [7], 64 µg/mL (≈ 154 µM); in [8] it was 64 µg/mL (≈ 154 µM); in assay [9] it was 32 µg/mL (≈ 76.9 µM). The MIC in [10] was found to be 64 µg/mL (≈ 154 µM); in assay [11] it was 32 µg/mL (≈ 76.9 µM).
On to `COc1cc(OC)c2cc(C(=O)NCc3ccc(Cl)cc3)cc(O)c2c1` [8a, N-(4-chlorobenzyl)-4-hydroxy-6,8-dimethoxy-2-naphthamide], for which the 50% inhibitory concentration (IC50) in assay [1] was 12.4 ± 1.34 µM; in assay [2], 8.61 ± 1.49 µM; in assay [3] it was 10.1 ± 1.17 µM; in assay [12], 25.4 ± 3.02 µM. Besides, the MIC was determined as 256 µg/mL (≈ 689 µM) in [4]; 32 µg/mL (≈ 86.1 µM) in assay [5]; 64 µg/mL (≈ 172 µM) in assay [6]; 64 µg/mL (≈ 172 µM) in [7]; 128 µg/mL (≈ 344 µM) in assay [8]; 64 µg/mL (≈ 172 µM) in assay [9]. Further, the MIC in assay [10] and in [11] was 64 µg/mL (≈ 172 µM) in each case.
For `COc1cc(OC)c2c(O)cc(C(=O)NCc3ccc(Cl)cc3)cc2c1` [8b, N-(4-chlorobenzyl)-4-hydroxy-5,7-dimethoxy-2-naphthamide], the IC50 in assay [13] is 7.88 ± 0.442 µM; in [1], 3.58 ± 1.06 µM; in [2], 2.97 ± 0.98 µM; in [3], 7.12 ± 1.25 µM; in assay [15] (IC50 VEGFR-2 inhibitory activity, IC50 ± SEM), 384 ± 47 nM; in assay [12] it was 12.8 ± 2.83 µM. Also, the “fold antibacterial activity relative to compound 5b” value in [14] was “more than 2 fold”. Moreover, the MIC in [4] is 256 µg/mL (≈ 689 µM); in [5] it was 8 µg/mL (≈ 21.5 µM); in assay [6], 16 µg/mL (≈ 43 µM); in assay [7], 64 µg/mL (≈ 172 µM); in assay [8], 16 µg/mL (≈ 43 µM); in [9], 16 µg/mL (≈ 43 µM). Also, the MIC in assay [10] turned out to be 64 µg/mL (≈ 172 µM); in [11] it was 16 µg/mL (≈ 43 µM). Besides, the “inhibitory activity on VEGFR-2 relative to DHFR” value in [15] (times better on the VEGFR-2 receptor than the DHFR receptor) is 15–20 times.
Take `O=C(O)c1cn(C2CC2)c2cc(N3CCNCC3)c(F)cc2c1=O` [Cipro, ciprofloxacin, reference compound]: the MIC in [5] came to 8 µg/mL (≈ 24.1 µM); in [6] it was 16 µg/mL (≈ 48.3 µM); in [8] it was 16 µg/mL (≈ 48.3 µM); in [9], 8 µg/mL (≈ 24.1 µM); in [10], 16 µg/mL (≈ 48.3 µM); in assay [11], 8 µg/mL (≈ 24.1 µM).
Turning to `OC(Cn1cncn1)(Cn1cncn1)c1ccc(F)cc1F` [Flu, fluconazole, reference compound], in [16] (Candida albicans, glabrata, krusei, tropicalis, ref [17]), the “MIC50, Candida species” value is 0.25 to 2.00 µg/mL. Also, the “MIC50, drug-resistant fungi” value in assay [17] was greater than 16 µg/mL. Further, the MIC worked out at 128 µg/mL (≈ 418 µM) in assay [4] and 4 µg/mL (≈ 13.1 µM) in [7].
For `CC(=O)O[C@H]1C(=O)[C@@]2(C)[C@H]([C@H](OC(=O)c3ccccc3)[C@]3(O)C[C@H](OC(=O)[C@H](O)[C@@H](NC(=O)c4ccccc4)c4ccccc4)C(C)=C1C3(C)C)[C@]1(OC(C)=O)CO[C@@H]1C[C@@H]2O` [PTX, paclitaxel, reference compound], the IC50 in assay [1] stood at 2.85 ± 0.43 µM; in assay [2] it was 3.96 ± 0.54 µM; in assay [3] it was 5.75 ± 0.6 µM; in assay [12] it was 7.29 ± 0.91 µM.
For the molecule `CN(C/C=C/c1ccccc1)Cc1cccc2ccccc12` [naftifine], in [16], the “MIC50, Candida species” value was 0.25 to 2.00 µg/mL.
